Results taken from PMC11656837, “pH-Responsive Peptide Nanoparticles Deliver Macromolecules to Cells via Endosomal Membrane Nanoporation” (ACS Nano, 2024).

Key:
HeLa cells [1] = assay: Cytosolic delivery of AF488-dextran 10 kDa (confocal microscopy); assay type: cell-based, human
Experimental: Just before imaging, cell nuclei were stained with Hoechst 33342 (blue); the external AF488-dextran was washed away, and AF647-dextran (lavender) was added to mark the extracellular spaces and cell boundaries. […] Individual intensity scans across single cells, indicated by the yellow arrows, are plotted in Figure 5E,F as examples. To measure cytosolic dextran concentrations, dextran intensity was measured in the external spaces, where it is at background levels and in puncta-free, nuclear/cytosolic areas of each cell.
These experiments were done using a very low solution concentration of 0.1 μM AF488-dextran 10 kDa to minimize any possible self-quenching in endosomes and to minimize any osmotic effect of the dextran on endosomal stability. […] Before imaging, the AF488-dextran was washed off, and Cascade Blue dextran 10 kDa was added to mark the external spaces and cell boundaries. […] Dextran delivered to the cytosol and nucleus, which was the only intensity that we measured in Figure 6A,B, was identified by its diffuse and uniform intensity in the nucleus and cytosol of each cell. In Figure 6E, cytosolic and nuclear concentrations of dextran are expressed as a percent of the external concentration incubated with cells based on comparison to a standard curve of fluorescence intensity versus concentration that was measured separately at the same instrument settings.
After overnight incubation, external AF488-dextran (green) was washed off and replaced with Cascade Blue dextran (blue) or AF647-dextran (lavender) just before imaging to mark the external spaces and cell boundaries. Cells were also treated with Hoechst 33342 (blue) to stain the nuclei. Quantitation was performed by generating a standard curve from microscopy images of solutions of AF488-dextran of known concentrations. For quantification, we noted the intensity of the cell nuclei. Multiple small circular areas of interest of a preset size were selected in cells in areas that were in the nucleus or had no obvious puncta. The same was done for the standard curve images. The fluorescence of each point of interest was quantified using the Nikon Elements software, and the concentration was determined using a standard curve and expressed as a percent of the initial incubating concentration.

[2] = Particle size by quasielastic / dynamic light scattering; assay type: physicochemical; conditions: QLS/DLS
Experimental: To test this hypothesis, we next studied the C16-D-pHD108 particle size in solution using quasielastic light scattering (QLS). Samples of C16-D-pHD108 were dissolved in PBS with 138 mM NaCl, PBS with 69 mM NaCl, or PO4 buffer with no added salt. Most measurements were made at 25 μM peptides, but we tested concentrations between 25 and 200 μM peptides. Buffer without peptides gave a very low scattering intensity and no coherent particle peaks. […] Salt concentrations of 0, 69, and 138 mM had only small effects on the nanoparticle size. The median particle size for all samples was ∼120 nm. Particle size distributions for 25 μM C16-D-pHD108 are shown in Figure 8C at several salt concentrations for independently prepared samples. In Figure 8D, the light scattering intensity is shown to be a linear function of peptide concentration, with a Y-intercept at zero.
Dynamic light scattering was performed by using a Malvern Zetasizer Nano ZS90 DLS instrument. After HPLC purification, 10 nmol aliquots of C16-D-pHD108 were dried in silanized Eppendorf tubes. Peptide readily dissolved in PBS buffer and other aqueous buffers and remained stable in solution. For DLS samples, C16-D-pHD108 was dissolved in PBS with 138 mM NaCl, in PBS with 69 mM NaCl (50% of normal), or in a PO4 buffer with no added salt. Most measurements were made at 25 μM peptide, but we tested concentrations between 25 and 200 μM peptide. […]

HeLa cells [3] = assay: Cell binding (peptide remaining in solution by HPLC); assay type: cell-based, human; conditions: HeLa 10^6 cells/ml in PBS pH 7, 20 μM peptide, 30 min, room temperature, supernatant by HPLC
Experimental: This was done by equilibrating a peptide solution with and without cells for 30 min, followed by measurement of the peptide remaining in solution using reverse phase HPLC. […] The cells were also stained with the DNA staining dye Hoechst 33342. […] Cell/membrane staining by C16-D-pHD108-TAMRA continues to grow rapidly as peptides accumulate on the membranes.
HeLa or RAW 264.7 cells were trypsinized, washed, and counted. Cells were concentrated in a minimal amount of PBS. To measure binding, 25 μL of cells at a known count were transferred to tubes and 25 μL of peptide in PBS was added for a final peptide concentration of 20 μM. Samples were incubated for 30 min with gentle agitation at room temperature. Cells were pelleted in a swinging bucket centrifuge, and 30 μL of supernatant was subjected to HPLC to measure the peptide remaining in the solution. A sample without cells but treated identically was used as a negative control for binding to normalize the recovered peptide.

In the case of `CCCCCCCCCCCCCCCC(=O)NCC(=O)N[C@@H](C(=O)NCC(=O)N[C@H](CCC(=O)O)C(=O)N[C@@H](C(=O)N[C@H](CC(C)C)C(=O)N[C@H](Cc1c[nH]cn1)C(=O)N[C@H](CCC(=O)O)C(=O)N[C@H](CC(C)C)C(=O)N[C@H](C)C(=O)N[C@H](CCC(=O)O)C(=O)NCC(=O)N[C@H](CC(C)C)C(=O)N1CCC[C@@H]1C(=O)N[C@H](CCC(=O)O)C(=O)N[C@H](CC(C)C)C(=O)N[C@H](CCC(N)=O)C(=O)N[C@H](CCC(=O)O)C(=O)N[C@H](Cc1c[nH]c2ccccc12)C(=O)N[C@@H](C(=O)N[C@H](Cc1c[nH]cn1)C(=O)N[C@H](C)C(=O)N[C@H](C)C(=O)N[C@H](CCC(N)=O)C(=O)N[C@H](CCC(N)=O)C(=O)N[C@H](CC(C)C)C(N)=O)[C@H](C)CC)C(C)C)[C@H](C)CC` [C16-D-pHD108], the cytosolic dextran concentration (HeLa cells [1]; 3 μM peptide, 0.1 μM AF488-dextran 10 kDa, overnight, 37 °C) is reported as “Low but statistically significant”, the “cytosolic dextran concentration, average, percent of applied external concentration” value (HeLa cells [1]; 25 μM peptide, 0.1 μM AF488-dextran 10 kDa, overnight, 37 °C, ~50 cells) is reported as “about 12%” and the “dextran staining of nucleus and cytosol” value (HeLa cells [1]; 25 μM peptide, 25 μM AF488-dextran 10 kDa, overnight, 37 °C) is reported as “diffusely and uniformly stained with dextran”. The “delivery of dextran to the cytosol at 4 °C” value (HeLa cells [1]; 25 μM peptide, 4 °C) was “does not enable any measurable delivery of dextran to the cytosol”, the “plasma membrane permeabilization (entry of Cascade Blue dextran added before imaging)” value (HeLa cells [1]; 25 μM peptide, 37 °C) was “not permeabilized” and the “cytosolic delivery of AF488-dextran, C16-L-pHD108 compared with C16-D-pHD108” value (HeLa cells [1]; HeLa, overnight, 37 °C) was “significantly more active”. For the same compound, the “stability of particle size distributions” value ([2]; after sample preparation, pH 7) was “stable up to a week”, the “median particle size / average diameter” value ([2]; all samples, buffer pH 7) was “around 120 nm” and the “binding to cells at pH 7” value (HeLa cells [3]) was “no measurable binding”.
